For this assay, the target named is T1, ΔF508-CFTR (Homo sapiens, UniProt P13569, DEL508-508).
T1 construct: Primary lung epithelial cells homozygous for the Cystic Fibrosis-causing ΔF508 mutation were differentiated for a minimum of 4 weeks; endogenous in cells; host or cells: primary lung epithelial cells (hBE) homozygous for ΔF508, differentiated at an air-liquid interface
Briefly: hBE equivalent current (Ieq) assay: AUC of equivalent chloride current after forskolin/VX-770 in primary lung epithelial cells homozygous for ΔF508. The following applies: relative to CFTR amplifier (Compound A)+VX-809 (3 uM), compound at 10 uM and Compound A at 3 uM, 24 h treatment. Format: cell-based. The essentials: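 ΔF508/ΔF508 primary human bronchial epithelia, differentiated ≥4 weeks at air-liquid interface, treated basolaterally with compound for 24 h at 37 °C. Transepithelial voltage and conductance by 24-channel current clamp at 36 °C: benzamil, then forskolin plus VX-770 for 27 min, then bumetanide; AUC of equivalent chloride current over vehicle.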

T1 sequence (P13569 with tags, fused parts or gaps DEL508-508): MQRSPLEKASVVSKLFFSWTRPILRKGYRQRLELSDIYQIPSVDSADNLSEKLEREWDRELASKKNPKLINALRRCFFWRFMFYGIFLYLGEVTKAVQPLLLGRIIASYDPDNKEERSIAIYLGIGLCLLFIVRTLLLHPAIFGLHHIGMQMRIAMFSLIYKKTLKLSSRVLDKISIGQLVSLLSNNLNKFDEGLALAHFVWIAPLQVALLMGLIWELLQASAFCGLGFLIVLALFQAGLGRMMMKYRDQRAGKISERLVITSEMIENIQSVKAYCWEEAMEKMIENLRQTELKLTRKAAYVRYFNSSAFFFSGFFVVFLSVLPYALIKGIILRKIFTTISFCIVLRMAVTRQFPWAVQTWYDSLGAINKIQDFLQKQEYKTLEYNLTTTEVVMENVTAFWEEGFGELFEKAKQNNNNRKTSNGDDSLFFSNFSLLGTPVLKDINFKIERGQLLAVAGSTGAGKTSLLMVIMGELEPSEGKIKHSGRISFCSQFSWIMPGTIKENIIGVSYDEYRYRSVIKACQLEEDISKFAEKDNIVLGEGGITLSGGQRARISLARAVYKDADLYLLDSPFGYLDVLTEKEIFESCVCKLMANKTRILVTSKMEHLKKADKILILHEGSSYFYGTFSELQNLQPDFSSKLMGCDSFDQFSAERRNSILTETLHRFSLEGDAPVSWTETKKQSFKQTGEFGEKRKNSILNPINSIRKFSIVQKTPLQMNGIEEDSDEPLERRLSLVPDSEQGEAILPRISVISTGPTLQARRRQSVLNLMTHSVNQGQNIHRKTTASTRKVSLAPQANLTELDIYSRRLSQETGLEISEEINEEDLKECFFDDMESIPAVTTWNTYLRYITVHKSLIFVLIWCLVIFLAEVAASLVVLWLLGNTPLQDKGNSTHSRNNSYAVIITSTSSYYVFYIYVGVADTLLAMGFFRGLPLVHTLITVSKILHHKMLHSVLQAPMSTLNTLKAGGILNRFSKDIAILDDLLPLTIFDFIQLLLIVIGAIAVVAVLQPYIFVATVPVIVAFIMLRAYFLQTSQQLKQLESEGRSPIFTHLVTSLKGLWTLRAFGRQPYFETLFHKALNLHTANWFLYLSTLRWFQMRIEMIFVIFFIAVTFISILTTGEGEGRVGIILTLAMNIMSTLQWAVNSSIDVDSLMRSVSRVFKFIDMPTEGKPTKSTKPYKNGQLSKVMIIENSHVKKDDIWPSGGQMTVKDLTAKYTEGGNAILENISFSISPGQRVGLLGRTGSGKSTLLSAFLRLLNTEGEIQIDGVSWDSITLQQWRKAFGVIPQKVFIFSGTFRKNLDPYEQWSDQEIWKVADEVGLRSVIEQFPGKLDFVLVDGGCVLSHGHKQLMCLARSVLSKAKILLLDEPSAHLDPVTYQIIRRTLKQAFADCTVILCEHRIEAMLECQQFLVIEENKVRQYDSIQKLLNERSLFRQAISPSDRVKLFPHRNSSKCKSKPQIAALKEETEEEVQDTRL

For `CCc1ccc(O[C@@H]2CCC[C@@H](C)C2)c2c(C(=O)O)cc(-c3csc4ccccc34)nc12` [Compound 184, 2-(Benzo[b]thiophen-3-yl)-8-ethyl-5-(((1R,3R)-3-methylcyclohexyl)oxy)quinoline-4-carboxylic Acid], the Activity entry is “++ (activity>50% of CFTR amplifier+VX-809 (3 uM) with compound at 10 uM and Compound A at 3 uM)”.
To `Cc1c(-c2cc(C(=O)[O-])c3c(O[C@@H](C)C4CCN(S(C)(=O)=O)CC4)ccc(C)c3n2)oc2ccccc12.[Na+]` [Compound 248, Sodium 5-[(1S)-1-(1-Methanesulfonylpiperidin-4-yl)ethoxy]-8-methyl-2-(3-methyl-1-benzofuran-2-yl)quinoline-4-carboxylate] belongs “++ (activity>50% of CFTR amplifier+VX-809 (3 uM) with compound at 10 uM and Compound A at 3 uM)”.
In the case of `Cc1c(-c2cc(C(=O)[O-])c3c(OCc4ccc5c(c4)OCO5)ccc(C)c3n2)sc2ccccc12.[Na+]` [Compound 295, Sodium 5-(2H-1,3-Benzodioxol-5-ylmethoxy)-8-methyl-2-(3-methyl-1-benzothiophen-2-yl)quinoline-4-carboxylate], the Activity entry was “++ (activity>50% of CFTR amplifier+VX-809 (3 uM) with compound at 10 uM and Compound A at 3 uM)”.
Take `Cc1c(-c2cc(C(=O)[O-])c3c(O[C@@H]4CCC[C@@H](c5ccccc5)C4)ccc(C)c3n2)oc2ccccc12.[Na+]` [Compound 301]: the Activity entry was “++ (activity>50% of CFTR amplifier+VX-809 (3 uM) with compound at 10 uM and Compound A at 3 uM)”.
Take `Cc1c(-c2cc(C(=O)[O-])c3c(O[C@@H](CCO)c4ccccc4)ccc(C)c3n2)sc2ccccc12.[Na+]` [Compound 310]: the Activity entry is “++ (activity>50% of CFTR amplifier+VX-809 (3 uM) with compound at 10 uM and Compound A at 3 uM)”.
For `Cc1c(-c2cc(C(=O)[O-])c3c(OCC4CC(C)(C)OC(C)(C)C4)ccc(C)c3n2)sc2ccccc12.[Na+]` [Compound 337], the Activity result was “++ (activity>50% of CFTR amplifier+VX-809 (3 uM) with compound at 10 uM and Compound A at 3 uM)”.
Under `Cc1c(-c2cc(C(=O)O)c3c(OC4CCCCC4)ccc(C)c3n2)sc2ccccc12` [Compound 134, 5-(Cyclohexyloxy)-8-methyl-2-(3-methyl-1-benzothiophen-2-yl)quinoline-4-carboxylic acid] stands “++ (activity>50% of CFTR amplifier+VX-809 (3 uM) with compound at 10 uM and Compound A at 3 uM)”; under `CCc1ccc(OC2CCCCC2)c2c(C(=O)O)cc(-c3c(C)oc4ccccc34)nc12` [Compound 176], “++ (activity>50% of CFTR amplifier+VX-809 (3 uM) with compound at 10 uM and Compound A at 3 uM)”.
To `CCc1ccc(OCc2ccc(-c3cccnc3)cc2)c2c(C(=O)O)cc(-c3csc4ccccc34)nc12` [Compound 195] belongs “++ (activity>50% of CFTR amplifier+VX-809 (3 uM) with compound at 10 uM and Compound A at 3 uM)”; to `Cc1c(-c2cc(C(=O)O)c3c(OCc4cccnc4)ccc(C)c3n2)oc2ccccc12` [Compound 114, 8-Methyl-2-(3-methyl-1-benzofuran-2-yl)-5-(pyridin-3-ylmethoxy)quinoline-4-carboxylic acid], “+ (activity<50% of an CFTR amplifier (Compound A)+VX-809 (3 uM) with compound at 10 uM and Compound A at 3 uM)”; to `Cc1c(-c2cc(C(=O)O)c3c(OC(C)c4ccc5nccn5c4)ccc(C)c3n2)oc2ccccc12` (stereo not shown) [Compound 347], “+ (activity<50% of an CFTR amplifier (Compound A)+VX-809 (3 uM) with compound at 10 uM and Compound A at 3 uM)”.
Take `Cc1c(-c2cc(C(=O)[O-])c3c(O[C@@H](C)C4CCCCC4)ccc(C)c3n2)oc2ccccc12.[Na+]` [Compound 244]: the Activity result was “++ (activity>50% of CFTR amplifier+VX-809 (3 uM) with compound at 10 uM and Compound A at 3 uM)”.
Under `Cc1ccc(O[C@H](C)c2ccccc2)c2c(C(=O)[O-])cc(-c3cn4ccccc4n3)nc12.[Na+]` [Compound 202, Sodium 2-[Imidazo[1,2-a]pyridin-2-yl]-8-methyl-5-[(1R)-1-phenylethoxy]quinoline-4-carboxylate] stands “+ (activity<50% of an CFTR amplifier (Compound A)+VX-809 (3 uM) with compound at 10 uM and Compound A at 3 uM)”; under `Cc1c(-c2cc(C(=O)O)c3cc(C4CC4)cc(C)c3n2)oc2ccccc12` [Compound 28, 6-Cyclopropyl-8-methyl-2-(3-methyl-1-benzofuran-2-yl)quinoline-4-carboxylic Acid], “++ (activity>50% of CFTR amplifier+VX-809 (3 uM) with compound at 10 uM and Compound A at 3 uM)”; under `Cc1c(-c2cc(C(=O)[O-])c3c(O[C@@H]4C[C@H](C)C[C@H](C)C4)ccc(C)c3n2)sc2ccccc12.[Na+]` [Compound 315], “++ (activity>50% of CFTR amplifier+VX-809 (3 uM) with compound at 10 uM and Compound A at 3 uM)”.
Under `Cc1c(-c2cc(C(=O)O)c3cc(OCc4ccccc4)cc(C)c3n2)oc2ccccc12` [Compound 24, 6-(Benzyloxy)-8-methyl-2-(3-methyl-1-benzofuran-2-yl)quinoline-4-carboxylic acid] stands “++ (activity>50% of CFTR amplifier+VX-809 (3 uM) with compound at 10 uM and Compound A at 3 uM)”; under `CNS(=O)(=O)c1ccc([C@@H](C)Oc2ccc(C)c3nc(-c4oc5ccccc5c4C)cc(C(=O)[O-])c23)cc1.[Na+]` [Compound 239, Sodium 8-Methyl-2-(3-methyl-l-benzofuran-2-yl)-5-[(1R)-1-[4-(methylsulfamoyl)phenyl]ethoxy]quinoline-4-carboxylate], “++ (activity>50% of CFTR amplifier+VX-809 (3 uM) with compound at 10 uM and Compound A at 3 uM)”; under `Cc1c(-c2cc(C(=O)O)c3cc(C(C)C)cc(C)c3n2)oc2ccccc12` [Compound 36], “++ (activity>50% of CFTR amplifier+VX-809 (3 uM) with compound at 10 uM and Compound A at 3 uM)”.
Under `Cc1c(-c2cc(C(=O)[O-])c3c(OC4CC(C)(C)OC(C)(C)C4)ccc(C)c3n2)oc2ccccc12.[Na+]` [Compound 334] stands “++ (activity>50% of CFTR amplifier+VX-809 (3 uM) with compound at 10 uM and Compound A at 3 uM)”.
For the compound `Cc1c(-c2cc(C(=O)[O-])c3c(O[C@@H](C)c4ccc(C5COC5)cc4)ccc(C)c3n2)oc2ccccc12.[Na+]` [Compound 286, Sodium 8-Methyl-2-(3-methyl-1-benzofuran-2-yl)-5-[(1S)-1-[4-(oxetan-3-yl)phenyl]ethoxy]quinoline-4-carboxylate], the Activity entry was “++ (activity>50% of CFTR amplifier+VX-809 (3 uM) with compound at 10 uM and Compound A at 3 uM)”.
`Cc1c(-c2cc(C(=O)O)c3c(OC4CCC(c5nnco5)CC4)ccc(C)c3n2)oc2ccccc12` (stereo not shown) [Compound 97, 8-Methyl-2-(3-methyl-1-benzofuran-2-yl)-5-[[4-(1,3,4-oxadiazol-2-yl)cyclohexyl]oxy]quinoline-4-carboxylic acid]: the Activity entry was “++ (activity>50% of CFTR amplifier+VX-809 (3 uM) with compound at 10 uM and Compound A at 3 uM)”.
To `Cc1cc(Cl)cc2c(C(=O)O)cc(-c3cc4ccccc4s3)nc12` [Compound 1] belongs “+ (activity<50% of an CFTR amplifier (Compound A)+VX-809 (3 uM) with compound at 10 uM and Compound A at 3 uM)”; to `Cc1cc(C)c2nc(-c3cc4ccccc4o3)c(C)c(C(=O)O)c2c1` [Compound 7, 2-(1-Benzofuran-2-yl)-3,6,8-trimethylquinoline-4-carboxylic acid], “+ (activity<50% of an CFTR amplifier (Compound A)+VX-809 (3 uM) with compound at 10 uM and Compound A at 3 uM)”; to `Cc1cccc(C)c1COc1ccc(C)c2nc(-c3sc4ccccc4c3C)cc(C(=O)[O-])c12.[Na+]` [Compound 305], “++ (activity>50% of CFTR amplifier+VX-809 (3 uM) with compound at 10 uM and Compound A at 3 uM)”.
For `Cc1c(-c2cc(C(=O)[O-])c3c(O[C@H](CCO)c4ccccc4)ccc(C)c3n2)sc2ccccc12.[Na+]` [Compound 311], the Activity entry is “++ (activity>50% of CFTR amplifier+VX-809 (3 uM) with compound at 10 uM and Compound A at 3 uM)”.
Regarding `Cc1c(-c2cc(C(=O)[O-])c3c(O[C@H](C)C4CCOCC4)ccc(C)c3n2)sc2ccccc12.[Na+]` [Compound 330], the Activity result is “++ (activity>50% of CFTR amplifier+VX-809 (3 uM) with compound at 10 uM and Compound A at 3 uM)”.
Under `CCc1ccc(O[C@H]2CCC[C@@H](C)C2)c2c(C(=O)[O-])cc(-c3sc4ccccc4c3C)nc12.[Na+]` [Compound 215, Sodium 8-Ethyl-2-(3-methyl-1-benzothiophen-2-yl)-5-[[(1S,3R)-3-methylcyclohexyl]oxy]quinoline-4-carboxylate] stands “++ (activity>50% of CFTR amplifier+VX-809 (3 uM) with compound at 10 uM and Compound A at 3 uM)”.
To `CCc1ccc(OC2CCCCC2)c2c(C(=O)O)cc(-c3coc4ccccc34)nc12` [Compound 170, 2-(1-Benzofuran-3-yl)-5-(cyclohexyloxy)-8-ethylquinoline-4-carboxylic acid] belongs “++ (activity>50% of CFTR amplifier+VX-809 (3 uM) with compound at 10 uM and Compound A at 3 uM)”; to `Cc1c(-c2cc(C(=O)[O-])c3c(OCc4ccccc4C#N)ccc(C)c3n2)sc2ccccc12.[Na+]` [Compound 280], “++ (activity>50% of CFTR amplifier+VX-809 (3 uM) with compound at 10 uM and Compound A at 3 uM)”.
For `Cc1c(-c2cc(C(=O)[O-])c3c(OC[C@@H]4C[C@H]5CC[C@@H](C4)O5)ccc(C)c3n2)oc2ccccc12.[Na+]` [Compound 356], the Activity result is “++ (activity>50% of CFTR amplifier+VX-809 (3 uM) with compound at 10 uM and Compound A at 3 uM)”.
Under `Cc1c(-c2cc(C(=O)[O-])c3c(O[C@H]4CCC[C@@H](c5ccccc5)C4)ccc(C)c3n2)oc2ccccc12.[Na+]` [Compound 299] stands “++ (activity>50% of CFTR amplifier+VX-809 (3 uM) with compound at 10 uM and Compound A at 3 uM)”.

Source of the values: patent publication US11136313B2, “Compounds, compositions, and methods for modulating CFTR” (Proteostasis Therapeutics, Inc., priority 2015, dated 2021).
